Data on ten molecules can be found in patent publication US20080293781A1, “Salicylic Acid Derivatives” (priority 2005, published 2008).

Data set [1] deals with T1, cyclooxygenase type-1 (COX1) (Mus musculus, UniProt P22437).
T1 construct: cyclooxygenase type-1 (COX1) activity was estimated in resting RAW 264.7 macrophages; endogenous in cells; host or cells: RAW 264.7 macrophages (resting)
T1 sequence (P22437 27-602): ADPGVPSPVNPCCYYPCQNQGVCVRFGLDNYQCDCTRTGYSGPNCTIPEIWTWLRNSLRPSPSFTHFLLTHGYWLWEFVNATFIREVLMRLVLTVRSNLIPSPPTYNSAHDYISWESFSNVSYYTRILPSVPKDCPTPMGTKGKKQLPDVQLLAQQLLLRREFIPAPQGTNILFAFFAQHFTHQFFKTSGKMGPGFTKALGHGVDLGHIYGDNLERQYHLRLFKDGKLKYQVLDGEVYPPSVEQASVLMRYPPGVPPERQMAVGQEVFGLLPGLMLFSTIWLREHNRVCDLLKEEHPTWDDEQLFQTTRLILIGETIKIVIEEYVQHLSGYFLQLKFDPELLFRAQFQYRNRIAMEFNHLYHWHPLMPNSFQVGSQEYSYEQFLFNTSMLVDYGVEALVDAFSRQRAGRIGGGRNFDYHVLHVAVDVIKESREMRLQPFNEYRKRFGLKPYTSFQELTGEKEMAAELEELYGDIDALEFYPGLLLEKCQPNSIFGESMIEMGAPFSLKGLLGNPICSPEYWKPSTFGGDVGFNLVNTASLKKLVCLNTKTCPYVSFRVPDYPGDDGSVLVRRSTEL
The experiment in a line: Inhibition of COX1 activity (PGE2 release) in resting RAW 264.7 macrophages. The format is cell-based. The conditions noted are these: for Type of inhibition “Irreversibile”: 30 min exposure, substrate applied directly or after extensive washing, difference less than 5% = irreversible. The method, then: The extent and type of inhibitory effects of this class of compounds on cyclooxygenase type-1 (COX1) activity was estimated in resting RAW 264.7 macrophages.
The type of inhibition (irreversible vs. reversible) was determined in resting conditions by exposing the cells to the test compounds for 30 min followed by the application of the substrate either directly or after extensive washing and then incubated for additional 15 min. The presence of residual activity (difference less than 5% vs. that recorded without washing) was taken as index of the irreversible nature of the inhibitory effects of the compounds.

The target in data set [2] is T2, cyclooxygenase type-2 (COX2) (Mus musculus, UniProt Q05769).
T2 sequence (Q05769 18-604): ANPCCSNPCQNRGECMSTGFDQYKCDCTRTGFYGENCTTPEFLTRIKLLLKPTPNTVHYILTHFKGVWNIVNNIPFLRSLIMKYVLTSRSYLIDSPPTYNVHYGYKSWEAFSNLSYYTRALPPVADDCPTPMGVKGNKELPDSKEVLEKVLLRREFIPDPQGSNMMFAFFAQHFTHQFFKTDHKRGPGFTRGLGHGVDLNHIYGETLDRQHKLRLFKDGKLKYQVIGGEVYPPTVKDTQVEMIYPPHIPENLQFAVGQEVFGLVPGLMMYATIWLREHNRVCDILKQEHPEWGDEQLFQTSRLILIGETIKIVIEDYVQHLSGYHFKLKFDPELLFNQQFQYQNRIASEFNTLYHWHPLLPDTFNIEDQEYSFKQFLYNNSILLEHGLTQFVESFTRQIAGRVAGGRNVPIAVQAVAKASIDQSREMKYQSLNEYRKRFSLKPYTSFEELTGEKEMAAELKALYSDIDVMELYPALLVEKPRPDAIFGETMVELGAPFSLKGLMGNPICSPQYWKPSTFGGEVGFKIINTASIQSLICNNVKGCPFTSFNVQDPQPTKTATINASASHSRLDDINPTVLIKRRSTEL
The experiment in a line: Inhibition of COX2 activity (PGE2 formation) in LPS/IFNγ-induced RAW 264.7 macrophages. The conditions noted are these: RAW264.7, read-out: COX2 inhibition %.
Procedure: The inhibitory activity on COX2 was, instead, analyzed following the induction of this protein with 1 μg/mL of the bacterial endotoxin, lipopolysaccharide (LPS) and 10 ng/mL of interferon-γ (IFNγ) that were applied for 16 h to RAW 264.7 macrophages previously treated with 100 μM of the irreversible blocker, aspirin (ASA). Arachidonic acid served as substrate for the enzyme and the extent of PGE2 formation taken as index of COX2 activity.

Data set [3] in a line: Hydrolysis in human serum. Format: in vitro ADME. The conditions noted are these: 37°C, RP-HPLC, half-life of hydrolysis, read-out: Uman Serum stability (t1/2 h) (converted). The protocol: A solution of each compound (10 mM) in acetonitrile was added to human serum (Sigma) preheated at 37° C., the final concentration of the compound was 250 μM. Resulting solution was incubated at 37±0.5° C. and at appropriate time intervals 500 μL of reaction mixture was withdrawn and added to 750 μL of acetonitrile containing 0.1% trifluoroacetic acid in order to deproteinize the serum. Sample was sonicated, vortexed and then centrifuged for 10′ at 2150 g, The clear supernatant was filtered by 0.45 μm PTFE filters (Alltech) and analysed by RP-HPLC.
(§1) The reverse-phase HPLC procedure allowed separation and quantitation of remaining salicylic ester and of salicylic acid.
(§2) HPLC analyses were performed with a HP 1100 chromatograph system (Agilent Technologies, Palo Alto, Calif., USA) equipped with a quaternary pump (model G1311A), a membrane degasser (G1379A), a diode-array detector (DAD) (model G1315B) integrated in the HP1100 system. Data analysis was done using a HP ChemStation system (Agilent Technologies). The analytical column was a Nucleosil 100-5C18 Nautilus (250×4.6 mm, 5 μm particle size) (Macherey-Nagel). The mobile phase consisting of acetonitrile/water (55/45) with 0.1% trifluoroacetic acid and the flow-rate was 1.2 mL/min. The injection volume was 20 μL (Rheodyne, Cotati, Calif.). The column effluent was monitored at 226 nm (for salicylic esters) and 240 nm (for salicylic acid) referenced against a 600 nm wavelength. Quantitation was done by comparison of peak areas with standards chromatographed under the same conditions.
(§3) The hydrolysis of all esters followed first-order kinetics; the observed pseudo-first-order rate constants (kobs) for the hydrolysis were calculated from the slopes of linear plots of the natural logarithm of percent remaining salicylic ester against time and the corresponding half-lives (t1/2) were obtained from: […]

Data set [4] can be described thus: Hydrolysis in acidic medium (pH 1). The conditions noted are these: HCl 0.1M, 250 μM, 37°C. Format: physicochemical. The protocol:
A solution of each compound (10 mM) in acetonitrile was added to a HCl 0.1M preheated at 37° C., the final concentration of the compound was 250 μM. Resulting solution was maintained at 37±0.5° C. and at appropriate time intervals a 20 μL aliquote of reaction solution was analysed by RP-HPLC.
as §1, §2, §3

Data set [5] relates to rats (carrageenan paw edema). The experiment in a line: Anti-inflammatory activity: carrageenan-induced paw edema in conscious rats. The format is in vivo. Further details: concentration or dose not given beside the values. The conditions noted are these: rat, intragastric, paw volume 3 hours after carrageenan, mean ± SEM. The protocol:
Paw edema was induced in conscious rats by subplantar injection of carrageenan (0.1 ml of 1% carrageenan suspension in carboxymethylcellulose 1%). Immediately after carrageenan injection, compounds or vehicle (CMC, 1%) were administered intragastrically to different groups of rats in a volume of 10 ml/kg. Paw volume was measured with a plethysmometer (Basile, Comerio, Italy) immediately before carrageenan injection and 3 hours afterwards. Paw edema was determined in each rat by subtracting the initial volume displacement (pre-drug) from the subsequent post-carrageenan measurement. Edema was expressed as the percent increase in paw volume relative to the preinjection value for each animal. Statistical analysis was performed with ANOVA followed by Newman Keuls test.

The test system of data set [6] is Male Wistar rats (glandular mucosa of the stomach). The data set can be described thus: Gastrolesive activity: gastric mucosal lesion index in rats. The format is in vivo. The conditions noted are these: rat, aspirin 120 mg/kg intragastric or equimolar doses, 3 hours after treatment, mean ± SEM. The method, then:
Male Wistar rats, […] (Harlan, S. Pietro al Natisone, Italy) were individually housed in hanging stainless-steel cages with grid floors, at constant room temperature (25±1° C.) and humidity (60±5%), with an artificial 12:12 h light/dark cycle. They were deprived of food but not of water 24 h before the experiments. Groups of rats (n=8-10) were given aspirin (Acetylsalicylic acid) 120 mg/kg by intragastric route or equimolar doses of the compounds under study. Rats were sacrificed 3 hours after the administration of the compounds. Immediately after the sacrifice, the stomachs were removed, opened along the lesser curvature and examined for the assessment of mucosal lesions, the stomachs were laid on a flat surface under a stereomicroscope. The glandular mucosa was examined and each individual hemorrhagic lesion was measured along its greatest length (<1 mm: rating=1; 1-2 mm: rating=2; >2 mm: rating according to their greatest length). The lengths of the lesions were summed to give an overall total, designated as the lesion index, for each stomach. Statistical analysis was performed with ANOVA followed by Newman Keuls test.

Setting [7] is: 10 μM, resting RAW 264.7 macrophages, arachidonic acid 1 μM.
[8] abbreviates: 30 μM, resting RAW 264.7 macrophages, arachidonic acid 1 μM.
The mark [9] stands for this setting: RAW264.7, read-out: COX1 inhibition %.

Structures are written as SMILES. Where two headings read alike, the source gives them in different places. Bounds are passed on as bounds.

Broadly, the melting point is the temperature of the solid-liquid transition. Take `O=C(Cc1ccc(OCC(CO[N+](=O)[O-])O[N+](=O)[O-])cc1)Oc1ccccc1C(=O)O` (centres unmarked): the melting point lay within 94.5 to 95 °C.

For orientation: inhibition means the share of the control response that was lost under treatment. In data set [1] (setting [7]), `O=C(CCCO[N+](=O)[O-])Oc1ccccc1C(=O)O` [(2), 2-{[4-(nitrooxy)butanoyl]oxy}benzoic acid] displayed a COX1 inhibition % of 62%. The COX1 inhibition % in data set [1] (setting [8]) was determined as 77%. In addition, the “Type of inhibition “Irreversibile”” value in data set [1] was “YES”. Also, the inhibition at 1 µM in data set [1] (setting [9]) amounted to 21%. In data set [2], the inhibition at 1 µM was 6%, the inhibition at 10 µM was found to be 15% and the inhibition at 30 µM amounted to 44%.

`O=C(CCCCO[N+](=O)[O-])Oc1ccccc1C(=O)O` [(3), 2-{[5-(nitrooxy)pentanoyl]oxy}benzoic acid]: in data set [1] (setting [7]), the COX1 inhibition % was found to be 66%. The COX1 inhibition % in data set [1] (setting [8]) was 77%. In addition, the “Type of inhibition “Irreversibile”” value in data set [1] is listed as “YES”. The inhibition at 1 µM in data set [1] (setting [9]) was 11%. Also, in data set [2], the inhibition at 1 µM was determined as 5%, the inhibition at 10 µM was 27% and the inhibition at 30 µM came out at 43%.

`CC(=O)Oc1ccccc1C(=O)O` [Acetylsalicylic acid, reference compound]: the half-life at 250 μM in data set [3] was 1.37 h. For the same molecule, the “pH 1 stability (% after 3 h)” value in data set [4] is given as over 90%. In data set [5], the “Anti inflammatory activity Paw edema (% increase)” value came out at 32.95 ± 3.19 %. For the same molecule, the “Gastrotoxicity Lesion index (mm)” value in data set [6] worked out at 44.75 ± 4.66 mm. Moreover, the COX1 inhibition % in data set [1] (setting [7]) is given as 27%; in data set [1] (setting [8]) it was 53%. Moreover, in data set [1], the “Type of inhibition “Irreversibile”” value was “YES”. In addition, the inhibition at 1 µM in data set [1] (RAW264.7, 1 μM, resting RAW 264.7 macrophages, arachidonic acid 1 μM, read-out: COX1 inhibition %) was under 2%; in data set [2], 2%. Also, the inhibition at 10 µM in data set [2] amounted to 5%. The inhibition at 30 µM in data set [2] is 20%.

The molecule `O=C(CCOc1no[n+]([O-])c1-c1ccccc1)Oc1ccccc1C(=O)O` [Compound 12, 2-[(3-{[5-oxido-4-phenyl-1,2,5-oxadiazol-3-yl]oxy}propanoyl)oxy]benzoic acid] gave a melting point of 152 to 153.9 °C.

In the case of `O=C(CCO[N+](=O)[O-])Oc1ccccc1C(=O)O` [Compound (1), 2-{[3-(nitrooxy)propanoyl]oxy}benzoic acid], in data set [3], the half-life at 250 μM was 0.26 h. For the same molecule, the “pH 1 stability (% after 3 h)” value in data set [4] is recorded as over 90%.

For the molecule `O=C(CCC(CO[N+](=O)[O-])O[N+](=O)[O-])Oc1ccccc1C(=O)O` (centres unmarked) [Compound (6), 2-{[4,5-bis(nitrooxy)pentanoyl]oxy}benzoic acid], the half-life at 250 μM in data set [3] was 4.08 h. In data set [4], the “pH 1 stability (% after 3 h)” value was over 85%. For the same molecule, the “Anti inflammatory activity Paw edema (% increase)” value in data set [5] amounted to 29.95 ± 7.30 %. The “Gastrotoxicity Lesion index (mm)” value in data set [6] was found to be 0.50 ± 0.22 mm.

For the molecule `O=C(CCCC(CO[N+](=O)[O-])O[N+](=O)[O-])Oc1ccccc1C(=O)O` (centres unmarked) [Compound (7), 2-{[5,6-bis(nitrooxy)hexanoyl]oxy}benzoic acid], the half-life at 250 μM in data set [3] was 4.87 h. For the same molecule, the “pH 1 stability (% after 3 h)” value in data set [4] is on record as over 85%. Further, the “Anti inflammatory activity Paw edema (% increase)” value in data set [5] was determined as 26.19 ± 3.58 %. Also, the “Gastrotoxicity Lesion index (mm)” value in data set [6] worked out at 0.85 ± 0.64 mm.

The molecule `O=C(CCOc1no[n+]([O-])c1S(=O)(=O)c1ccccc1)Oc1ccccc1C(=O)O` [Compound (11), 2-[(3-{[5-oxido-4-(phenylsulfonyl)-1,2,5-oxadiazol-3-yl]oxy}propanoyl)oxy]benzoic acid] registered a melting point of 169 to 170 °C. For the same molecule, the half-life at 250 μM in data set [3] is 0.44 h. Besides, the “pH 1 stability (% after 3 h)” value in data set [4] was over 90%. The “Anti inflammatory activity Paw edema (% increase)” value in data set [5] turned out to be 34.88 ± 4.69 %. Further, in data set [6], the “Gastrotoxicity Lesion index (mm)” value is 0.50 ± 0.31 mm.

As for `CCC(=O)Oc1ccccc1C(=O)O` [Propanoylsalicylic acid, reference compound], the “Anti inflammatory activity Paw edema (% increase)” value in data set [5] was determined as 48.13 ± 6.54%. Also, the “Gastrotoxicity Lesion index (mm)” value in data set [6] was determined as 52.00 ± 11.78 mm.
